# Measurements: patent US6737383B1, “Herbicidal oxadiazolidines” (priority 1999, dated 2004)
# Key:
# duck salad = test: Test B flood test duck salad; assay type: in vivo, Heteranthera limosa
# Summary of the method: (§1)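 Read-out is a visual response score from 0 (no effect) to 10 (complete control), assigned by comparison with untreated controls. Treatment was applied at the 2-leaf stage, and plants stayed in the greenhouse for twelve to sixteen days before scoring.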
# bamyardgrass = test: Test B flood test barnyardgrass; assay type: in vivo, Echinochloa crus-galli
# Summary of the method: as §1
# velvetleaf = test: Test B pre/postemergence velvetleaf; assay type: in vivo, Abutilon theophrasti; details: for Velvetleaf plant response rating: scale of 0 to 10 where 0 is no effect and 10 is complete control
# Summary of the method: (§2)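 Test chemicals in a non-phytotoxic solvent mixture with surfactant were sprayed preemergence onto planted seeds and postemergence onto plants 2 to 18 cm tall (1- to 4-leaf stage). After twelve to sixteen days in a greenhouse, injury was visually rated against untreated controls from 0 (no effect) to 10 (complete control).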
# rape = test: Test B pre/postemergence rape; assay type: in vivo, Brassica napus; details: for Rape plant response rating: scale of 0 to 10 where 0 is no effect and 10 is complete control
# Summary of the method: as §2
# wheat = test: Test B pre/postemergence wheat; assay type: in vivo, Triticum aestivum; details: for Wheat plant response rating: scale of 0 to 10 where 0 is no effect and 10 is complete control
# Summary of the method: as §2
# purple nutsedge = test: Test B pre/postemergence purple nutsedge; assay type: in vivo, Cyperus rotundus; details: for Nutsedge plant response rating: scale of 0 to 10 where 0 is no effect and 10 is complete control
# Summary of the method: as §2
# rice = test: Test B flood test rice; assay type: in vivo, Oryza sativa
# Summary of the method: as §1
# pigweed = test: Test B pre/postemergence pigweed; assay type: in vivo, Amaranthus retroflexus; details: for Redroot pigweed plant response rating: scale of 0 to 10 where 0 is no effect and 10 is complete control
# Summary of the method: as §2
# giant foxtail = test: Test B pre/postemergence giant foxtail; assay type: in vivo, Setaria faberii; details: for Giant foxtail plant response rating: scale of 0 to 10 where 0 is no effect and 10 is complete control
# Summary of the method: as §2
# sugar beet = test: Test B pre/postemergence sugar beet; assay type: in vivo, Beta vulgaris; details: for Sugarbeets plant response rating: scale of 0 to 10 where 0 is no effect and 10 is complete control
# Summary of the method: as §2
# soybean = test: Test B pre/postemergence soybean; assay type: in vivo, Glycine max; details: for Soybean plant response rating: scale of 0 to 10 where 0 is no effect and 10 is complete control
# Summary of the method: as §2
# wild oat = test: Test B pre/postemergence wild oat; assay type: in vivo, Avena fatua; details: for Wild oats plant response rating: scale of 0 to 10 where 0 is no effect and 10 is complete control
# Summary of the method: as §2
# blackgrass = test: Test B pre/postemergence blackgrass; assay type: in vivo, Alopecurus myosuroides
# Summary of the method: as §2
# morningglory = test: Test B pre/postemergence morningglory; assay type: in vivo, Ipomoea hederacea; details: for Morningglory plant response rating: scale of 0 to 10 where 0 is no effect and 10 is complete control
# Summary of the method: as §2
# smallflower flatsedge = test: Test B flood test smallflower flatsedge; assay type: in vivo, Cyperus difformis
# Summary of the method: as §1
# bedstraw = test: Test B pre/postemergence bedstraw; assay type: in vivo, Galium aparine
# Summary of the method: as §2
# [1] = Postemergence (flood test), Rate 125 g/ha, scale 0 to 10, 0 is no effect, 10 is complete control
# [2] = Rate 62 g/ha, Postemergence (flood test species), scale of 0 to 10 where 0 is no effect and 10 is complete control
# [3] = Rate 500 g/ha, listed under Postemergence (flood test species), scale 0 to 10, 0 no effect, 10 complete control
# [4] = Postemergence, Rate 125 g/ha, scale 0 to 10, 0 is no effect, 10 is complete control
# [5] = Preemergence, Rate 62 g/ha, scale 0 to 10 (0 no effect, 10 complete control)
# [6] = Rate 500 g/ha, Postemergence, scale 0 to 10, 0 no effect, 10 complete control
# [7] = Preemergence, Rate 250 g/ha, scale of 0 to 10 where 0 is no effect and 10 is complete control
# [8] = Rate 62 g/ha, Postemergence, scale of 0 to 10 where 0 is no effect and 10 is complete control
# [9] = Rate 250 g/ha, Postemergence, scale of 0 to 10 where 0 is no effect and 10 is complete control
smiles,measurement,setting,value
CC(C)N(C(=O)n1oc(=O)n(C2CCCCCC2)c1=O)c1ccc(F)cc1F [Compound 342],"Plant response rating, Ducksalad",duck salad; [1],0
same,Ducksalad plant response rating,duck salad; [2],0
same,"Plant response rating, Ducksalad",duck salad; [3],4
same,"Plant response rating, Barnyardgrass",bamyardgrass; [1],2
same,Barnyardgrass plant response rating,bamyardgrass; [2],0
same,"Plant response rating, Barnyardgrass","bamyardgrass; Rate 250 g/ha, Postemergence (flood test species), scale of 0 to 10 where 0 is no effect and 10 is complete control",9
same,"Plant response rating, Barnyardgrass",bamyardgrass; [3],9
same,"Plant response rating, Velvetleaf",velvetleaf; [4],0
same,"Plant response rating, Velvetleaf",velvetleaf; [5],0
same,Velvetleaf plant response rating (0 to 10 scale),"velvetleaf; Preemergence, Rate 125 g/ha",0
same,Velvetleaf plant response rating,"velvetleaf; Preemergence, Rate 250 g/ha",0
same,Velvetleaf plant response rating,"velvetleaf; Preemergence, Rate 500 g/ha",0
same,Velvetleaf plant response rating,"velvetleaf; Rate 62 g/ha, Postemergence",0
same,"Plant response rating, Velvetleaf",velvetleaf; [6],0
same,"Plant response rating, Rape",rape; [4],0
same,"Plant response rating, Rape",rape; [5],0
same,Rape plant response rating (0 to 10 scale),"rape; Preemergence, Rate 125 g/ha",0
same,Rape plant response rating,"rape; Preemergence, Rate 250 g/ha",0
same,Rape plant response rating,"rape; Preemergence, Rate 500 g/ha",0
same,Rape plant response rating,"rape; Rate 62 g/ha, Postemergence",0
same,"Plant response rating, Rape",rape; [6],4
same,"Plant response rating, Wheat",wheat; [4],0
same,"Plant response rating, Wheat",wheat; [5],0
same,Wheat plant response rating (0 to 10 scale),"wheat; Preemergence, Rate 125 g/ha",0
same,Wheat plant response rating,"wheat; Preemergence, Rate 250 g/ha",0
same,Wheat plant response rating,"wheat; Preemergence, Rate 500 g/ha",3
same,Wheat plant response rating,"wheat; Rate 62 g/ha, Postemergence",0
same,"Plant response rating, Wheat",wheat; [6],0
same,"Plant response rating, Nutsedge",purple nutsedge; [4],0
same,"Plant response rating, Nutsedge",purple nutsedge; [5],0
same,Nutsedge plant response rating (0 to 10 scale),"purple nutsedge; Preemergence, Rate 125 g/ha",0
same,Nutsedge plant response rating,"purple nutsedge; Preemergence, Rate 250 g/ha",0
same,Nutsedge plant response rating,"purple nutsedge; Preemergence, Rate 500 g/ha",0
same,Nutsedge plant response rating,"purple nutsedge; Rate 62 g/ha, Postemergence",0
same,"Plant response rating, Nutsedge",purple nutsedge; [6],0
same,"Plant response rating, Rice",rice; [1],0
same,Rice plant response rating,rice; [2],0
same,"Plant response rating, Rice",rice; [3],0
same,"Plant response rating, Redroot pigweed",pigweed; [4],2
same,"Plant response rating, Redroot pigweed",pigweed; [5],0
same,Redroot pigweed plant response rating (0 to 10 scale),"pigweed; Preemergence, Rate 125 g/ha",0
same,Redroot pigweed plant response rating,"pigweed; Preemergence, Rate 250 g/ha",0
same,Redroot pigweed plant response rating,"pigweed; Preemergence, Rate 500 g/ha",0
same,Redroot pigweed plant response rating,"pigweed; Rate 62 g/ha, Postemergence",2
same,"Plant response rating, Redroot pigweed",pigweed; [6],8
same,"Plant response rating, Giant foxtail",giant foxtail; [4],0
same,"Plant response rating, Giant foxtail",giant foxtail; [5],8
same,Giant foxtail plant response rating (0 to 10 scale),"giant foxtail; Preemergence, Rate 125 g/ha",9
same,Giant foxtail plant response rating,"giant foxtail; Preemergence, Rate 250 g/ha",10
same,Giant foxtail plant response rating,"giant foxtail; Preemergence, Rate 500 g/ha",10
same,Giant foxtail plant response rating,"giant foxtail; Rate 62 g/ha, Postemergence",0
same,"Plant response rating, Giant foxtail",giant foxtail; [6],7
same,"Plant response rating, Sugarbeets",sugar beet; [4],0
same,"Plant response rating, Sugarbeets",sugar beet; [5],0
same,Sugarbeets plant response rating (0 to 10 scale),"sugar beet; Preemergence, Rate 125 g/ha",0
same,Sugarbeets plant response rating,"sugar beet; Preemergence, Rate 250 g/ha",0
same,Sugarbeets plant response rating,"sugar beet; Preemergence, Rate 500 g/ha",0
same,Sugarbeets plant response rating,"sugar beet; Rate 62 g/ha, Postemergence",0
same,"Plant response rating, Sugarbeets",sugar beet; [6],0
same,"Plant response rating, Soybean",soybean; [4],5
same,"Plant response rating, Soybean",soybean; [5],0
same,Soybean plant response rating (0 to 10 scale),"soybean; Preemergence, Rate 125 g/ha",0
same,Soybean plant response rating,"soybean; Preemergence, Rate 250 g/ha",0
same,Soybean plant response rating,"soybean; Preemergence, Rate 500 g/ha",0
same,Soybean plant response rating,"soybean; Rate 62 g/ha, Postemergence",3
same,"Plant response rating, Soybean",soybean; [6],7
same,"Plant response rating, Wild oats",wild oat; [4],0
same,"Plant response rating, Wild oats",wild oat; [5],0
same,Wild oats plant response rating (0 to 10 scale),"wild oat; Preemergence, Rate 125 g/ha",0
same,Wild oats plant response rating,"wild oat; Preemergence, Rate 250 g/ha",0
same,Wild oats plant response rating,"wild oat; Preemergence, Rate 500 g/ha",4
same,Wild oats plant response rating,"wild oat; Rate 62 g/ha, Postemergence",0
same,"Plant response rating, Wild oats",wild oat; [6],0
same,"Plant response rating, Blackgrass",blackgrass; [4],0
same,"Plant response rating, Blackgrass",blackgrass; [5],0
same,Blackgrass plant response rating (0 to 10 scale),"blackgrass; Preemergence, Rate 125 g/ha",3
same,Blackgrass plant response rating,blackgrass; [7],3
same,Blackgrass plant response rating,"blackgrass; Preemergence, Rate 500 g/ha, scale of 0 to 10 where 0 is no effect and 10 is complete control",7
same,Blackgrass plant response rating,blackgrass; [8],0
same,"Plant response rating, Blackgrass",blackgrass; [9],2
same,"Plant response rating, Blackgrass",blackgrass; [6],4
same,"Plant response rating, Morningglory",morningglory; [4],7
same,"Plant response rating, Morningglory",morningglory; [5],0
same,Morningglory plant response rating (0 to 10 scale),"morningglory; Preemergence, Rate 125 g/ha",0
same,Morningglory plant response rating,"morningglory; Preemergence, Rate 250 g/ha",0
same,Morningglory plant response rating,"morningglory; Preemergence, Rate 500 g/ha",0
same,Morningglory plant response rating,"morningglory; Rate 62 g/ha, Postemergence",7
same,"Plant response rating, Morningglory",morningglory; [6],9
same,"Plant response rating, S. Flatsedge",smallflower flatsedge; [1],4
same,S. Flatsedge plant response rating,smallflower flatsedge; [2],0
same,"Plant response rating, Bedstraw",bedstraw; [4],5
same,"Plant response rating, Bedstraw",bedstraw; [5],0
same,Bedstraw plant response rating (0 to 10 scale),"bedstraw; Preemergence, Rate 125 g/ha",0
same,Bedstraw plant response rating,bedstraw; [7],0
same,Bedstraw plant response rating,bedstraw; [8],4
same,"Plant response rating, Bedstraw",bedstraw; [9],5
same,"Plant response rating, Bedstraw",bedstraw; [6],5
